Legend:
Assay type in all cases: cell-based, Plasmodium falciparum
[1] = test system: P. falciparum Dd2 Cytb A122D; assay: SYBR Green ABS proliferation assay, NCGC00473217 selected clone F12; conditions: Plasmodium falciparum, DD2, […]; averaged from three independent replicates; top concentration 29 µM; read-out: Average AC50 (Log[M]), NCGC00473217 clone F12 (Cytb A122D) (converted)
Procedure, shortened: (§1)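 72 h SYBR Green-I read; % response = relative growth vs controls. Clones from resistance selection, cloned by limiting dilution; 37 °C, 5% CO2/5% O2/90% N2.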

[2] = test system: P. falciparum Dd2 (clone B2) asexual blood stage parasites; assay: P. falciparum Dd2 asexual blood stage SYBR Green-I 72 h proliferation assay (qHTS); conditions: Plasmodium falciparum, DD2, Dd2 parental; Hill fit, averaged from three independent replicates; top concentration 29 µM; read-out: Average AC50 (Log[M]), Dd2 (converted)
[3] = test system: P. falciparum Dd2 Cytb F123L; assay: SYBR Green ABS proliferation assay, NCGC00473217 selected clone G08; conditions: Plasmodium falciparum, DD2, […]; averaged from three independent replicates; top concentration 29 µM; read-out: Average AC50 (Log[M]), NCGC00473217 clone G08 (Cytb F123L) (converted)
Procedure, shortened: as §1

[4] = test system: P. falciparum Dd2 Cytb V259L; assay: SYBR Green ABS proliferation assay, NCGC00473217 selected clone F06; conditions: Plasmodium falciparum, DD2, […]; averaged from three independent replicates; top concentration 29 µM; read-out: Average AC50 (Log[M]), NCGC00473217 clone F06 (Cytb V259L) (converted)
Procedure, shortened: as §1

[5] = test system: P. falciparum Dd2 Cytb G131S; assay: SYBR Green ABS proliferation assay, NCGC00374598 selected clone C11; conditions: Plasmodium falciparum, DD2, […]; averaged from three independent replicates; top concentration 29 µM; read-out: Average AC50 (Log[M]), NCGC00374598 clone C11 (Cytb G131S) (converted)
Procedure, shortened: as §1

SMILES | AC50 [1] [M] | AC50 [2] [M] | AC50 [3] [M] | AC50 [4] [M] | AC50 [5] [M]
CCCN1C(CC(C)C)=N[S+](=O)([O-])c2cc(NC(=O)c3cc(C)on3)ccc21 [NCGC00521054-01] | 2e-06 | 8.93e-06 | 4.48e-06 | 2e-06 | 1.26e-05
CCCN1C(CC(C)C)=N[S+](=O)([O-])c2cc(NC(=O)c3c(Cl)cnn3C)ccc21 [NCGC00521056-01] | 6.32e-06 | 1.65e-05 | 1.22e-05 | 8.61e-06 | 1.12e-05
CCCN1C(CC(C)C)=N[S+](=O)([O-])c2cc(NC(=O)COc3ccccc3)ccc21 [NCGC00521094-01] | 1.36e-05 | 7.67e-06 | 6.1e-06 | 6.84e-06 | 8.28e-06
CCCN1C(CC(C)C)=N[S+](=O)([O-])c2cc(NC(=O)C3CCC3)ccc21 [NCGC00521095-01] | 1e-05 | 3.17e-06 | 6.7e-06 | 2.99e-06 | 3.36e-07
CCCN1C(CC(C)C)=N[S+](=O)([O-])c2cc(NC(=O)c3cn(-c4ccccc4)cn3)ccc21 [NCGC00521102-01] | 3.56e-08 | 7.67e-06 | 3.56e-06 | 2.99e-06 | 2.62e-07
CCCN1C(CC(C)C)=N[S+](=O)([O-])c2cc(NC(=O)C3CCCCC3)ccc21 [NCGC00521107-01] | 1.04e-05 | 6.32e-06 | 8.93e-06 | 5.02e-06 | 6.32e-06
CCCN1C(CC(C)C)=N[S+](=O)([O-])c2cc(NC(=O)C3CCN(C)CC3)ccc21 [NCGC00521111-01] | 3.77e-07 | 2.08e-05 | 1.22e-05 | 1.53e-05 | 1.17e-06
CCCN1C(CC(C)C)=N[S+](=O)([O-])c2cc(NC(=O)c3ccc(-c4ccccc4)s3)ccc21 [NCGC00521113-01] | 5.02e-06 | 5.02e-06 | 2.24e-06 | 1.42e-06 | 1.68e-06
CCCN1C(CC(C)C)=N[S+](=O)([O-])c2cc(NC(=O)c3cc4cccnc4s3)ccc21 [NCGC00521132-01] | 2.99e-06 | 6.7e-06 | 8.93e-06 | 2.99e-06 | 2.82e-06
CCCN1C(CC(C)C)=N[S+](=O)([O-])c2cc(NC(=O)c3ccccn3)ccc21 [NCGC00521133-01] | 1.89e-06 | 9.29e-06 | 1.04e-05 | 7.67e-06 | 1.04e-06
CCCN1C(CC(C)C)=N[S+](=O)([O-])c2cc(NC(=O)c3cncnc3)ccc21 [NCGC00521134-01] | 3.77e-06 | 8.93e-06 | 4.48e-06 | 1.59e-06 | 4.48e-06
CCCN1C(CC(C)C)=N[S+](=O)([O-])c2cc(NC(=O)c3cnn4cccnc34)ccc21 [NCGC00521136-01] | 6.84e-06 | 1.22e-05 | 1.17e-05 | 8.28e-06 | 7.96e-06
CCCN1C(CC(C)C)=N[S+](=O)([O-])c2cc(NC(=O)c3cc4ncccn4n3)ccc21 [NCGC00521137-01] | 9.29e-06 | 1e-05 | 1.04e-05 | 7.38e-06 | 5.97e-06
CCCN1C(CC(C)C)=N[S+](=O)([O-])c2cc(N[S+](=O)([O-])c3ccc4ccccc4c3)ccc21 [NCGC00521141-01] | 1.12e-05 | 1.26e-05 | 7.1e-07 | 5.32e-06 | 7.1e-06
CCCN1C(CC(C)C)=N[S+](=O)([O-])c2cc(NC(=O)c3coc4ccccc34)ccc21 [NCGC00521147-01] | 5.64e-06 | 7.38e-06 | 8.93e-06 | 2.24e-06 | 8.43e-06
CCCN1C(CC(C)C)=N[S+](=O)([O-])c2cc(NC(=O)c3ncccn3)ccc21 [NCGC00521149-01] | 1.04e-05 | 1.12e-05 | 1.42e-05 | 1.19e-05 | 1.59e-05
CCCN1C(CC(C)C)=N[S+](=O)([O-])c2cc(NC(=O)c3cc4c(s3)CCC4)ccc21 [NCGC00521150-01] | 1.59e-05 | 1.59e-05 | 1.12e-05 | 1.12e-05 | 1.04e-05
CCCN1C(CC(C)C)=N[S+](=O)([O-])c2cc(NC(=O)C3CCCC3)ccc21 [NCGC00521158-01] | 5.22e-06 | 2.72e-06 | 1.17e-05 | 2.16e-06 | 4.15e-06

SMILES | AC50 [1] [M] | AC50 [2] [M] | AC50 [3] [M] | AC50 [4] [M] | AC50 [5] [M]
CCCN1C(CC(C)C)=N[S+](=O)([O-])c2cc(NC(=O)c3ccc4ccccc4n3)ccc21 [NCGC00521161-01] | 3.99e-06 | 5.97e-06 | 2.82e-06 | 2.24e-06 | 7.96e-07
CCCN1C(CC(C)C)=N[S+](=O)([O-])c2cc(NC(=O)c3cc4ccncc4[nH]3)ccc21 [NCGC00521877-01] | 7.67e-07 | 2.24e-06 | 9.29e-07 | 7.67e-07 | 1.42e-06
CCCN1C(CC(C)C)=N[S+](=O)([O-])c2cc(NC(=O)Nc3ccccc3)ccc21 [NCGC00521878-01] | 8.28e-06 | 3.56e-06 | 1.59e-05 | 1.04e-05 | 7.96e-06
CCCN1C(CC(C)C)=N[S+](=O)([O-])c2cc(NC(=O)c3cc4ccccc4s3)ccc21 [NCGC00521881-01] | 4.48e-06 | 1.65e-05 | 7.1e-06 | 6.84e-06 | 1.42e-05
CCCN1C(CC(C)C)=N[S+](=O)([O-])c2cc(NC(=O)C34CC5CC(CC(C5)C3)C4)ccc21 [NCGC00521891-01] | 1.89e-06 | 3.56e-06 | 1e-06 | 1.12e-06 | 2.82e-07
CCCN1C(CC(C)C)=N[S+](=O)([O-])c2cc(NC(=O)c3ccc(Cl)s3)ccc21 [NCGC00523535-01] | 5.86e-06 | 1.53e-06 | 9.66e-06 | 7.1e-06 | 1e-06
CCCN1C(CC(C)C)=N[S+](=O)([O-])c2cc(NC(=O)c3ccc(F)s3)ccc21 [NCGC00523537-01] | 7.96e-07 | 1.12e-07 | 3.85e-06 | 8.93e-07 | 3.17e-07
CCCN1C(CC(C)C)=N[S+](=O)([O-])c2cc(NC(=O)c3cccc(F)c3)ccc21 [NCGC00523538-01] | 2.72e-06 | 3.85e-06 | 1.12e-05 | 1e-06 | 2.08e-06
CCCN1C(CC(C)C)=N[S+](=O)([O-])c2cc(NC(=O)c3ccccc3F)ccc21 [NCGC00523540-01] | 2.82e-06 | 4.66e-06 | 2.72e-06 | 2.16e-06 | 4.48e-06
CCCN1C(CC(C)C)=N[S+](=O)([O-])c2cc(NC(=O)c3sccc3F)ccc21 [NCGC00523542-01] | 1.31e-06 | 1.59e-06 | 7.52e-06 | 5.43e-06 | 1.78e-06
CCCN1C(CC(C)C)=N[S+](=O)([O-])c2cc(NC(=O)c3ccc(F)cc3F)ccc21 [NCGC00523543-01] | 1.93e-06 | 3.99e-06 | 3.56e-07 | 3.36e-06 | 2e-06
CCCN1C(CC(C)C)=N[S+](=O)([O-])c2cc(NC(=O)c3cc(F)cc(F)c3)ccc21 [NCGC00523544-01] | 9.66e-06 | 5.43e-06 | 1.08e-05 | 7.1e-06 | 5.02e-06
CCCN1C(CC(C)C)=N[S+](=O)([O-])c2cc(NC(=O)c3sccc3Cl)ccc21 [NCGC00531529-01] | 6.1e-07 | 2.24e-06 | 2.24e-06 | 3.7e-06 | 5.86e-07
CCCN1C(CC(C)C)=N[S+](=O)([O-])c2cc(NC(=O)c3ccccc3OC(F)(F)F)ccc21 [NCGC00531535-01] | 1.08e-05 | 1.59e-05 | 1.04e-05 | 9.29e-06 | 8.93e-06
CCCN1C(CC(C)C)=N[S+](=O)([O-])c2cc(NC(=O)c3c(F)cccc3F)ccc21 [NCGC00531536-01] | 1e-05 | 1.59e-05 | 5.64e-06 | 1.22e-05 | 1.22e-05
CCCN1C(CC(C)C)=N[S+](=O)([O-])c2cc(NC(=O)c3cccc(OC(F)(F)F)c3)ccc21 [NCGC00531537-01] | 1e-05 | 1.12e-05 | 7.96e-06 | 3.99e-06 | 1.12e-05
CCCN1C(CC(C)C)=N[S+](=O)([O-])c2cc(NC(=O)c3ccc(Cl)c(Cl)c3)ccc21 [NCGC00531756-01] | 8.93e-06 | 2e-05 | 1.42e-05 | 7.38e-06 | 5.97e-06

From publication PMC7822874, “Chemoprotective antimalarials identified through quantitative high-throughput screening of Plasmodium blood and liver stage parasites” (Scientific Reports, 2021)
